Laboratory results as given in PubChem BioAssay (NCI).
“And” between values parts separate entries of the source, which are not always exact repeats. Equal entries are not always repeated.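 Results reflect a 48-hour exposure of cells in 96-well plates to compound at five concentrations. GI50 = concentration required for 50% inhibition of growth. TGI: total growth inhibition.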

Legend:
Assay in all cases: NCI anticancer screen, dose series, 48 h
KM20L2 colon = tested on: KM20L2 colon
LXFL 529 NSCLC = tested on: LXFL 529 NSCLC
XF 498 CNS = tested on: XF 498 CNS
M19-MEL melanoma = tested on: M19-MEL melanoma
HOP-18 NSCLC = tested on: HOP-18 NSCLC
DLD-1 colon = tested on: DLD-1 colon
DMS 114 small cell lung = tested on: DMS 114 small cell lung
RXF-631 renal = tested on: RXF-631 renal

Structure (SMILES) | TGI (KM20L2 colon) [µM] | TGI (LXFL 529 NSCLC) [µM] | TGI (XF 498 CNS) [µM] | TGI (M19-MEL melanoma) | TGI (HOP-18 NSCLC) [µM] | TGI (DLD-1 colon) | TGI (DMS 114 small cell lung) | TGI (RXF-631 renal) [µM] | GI50 (DMS 114 small cell lung)
O=C(Cc1nc2c3c(ccc2[nH]c1=O)C(=O)c1ccccc1C3=O)C(=O)Nc1ccccc1[N+](=O)[O-] | 39.6 | 18 | 43.1 | 79.5 µM | – | – | – | – | –
COc1cc2c(cc1OC)[C@H]1CN3CCC[C@H]3C=C1c1ccc(OC)c(O)c1-2 | – | – | – | < 0.0001 µM | 0.000181 | 0.0109 µM and 0.0123 µM | 0.00014 µM | – | –
N#CC1=C(c2ccccc2)NNC(c2ccc(Cl)cc2)CC1=O (stereo unspecified) | 61.2 | > 100 | 77.1 | – | > 100 | > 100 µM | > 100 µM | – | –
O=C1Sc2ccccc2C(=O)N2CSCC12 (stereo unspecified) | > 100 | > 100 | > 100 | > 100 µM | > 100 | > 100 µM | > 100 µM | – | –
CSC(=Nc1ccccc1)N(c1ccccc1)c1nc(=[N+](C)C)ss1 | 13.7 | – | – | 4.98 µM | – | – | 0.46 µM | – | –
COc1ccc(CC2c3c(cc(OC)c(OC)c3OC)CCN2C)cc1OC (stereo unspecified) | > 100 | > 100 | > 100 | – | > 100 | > 100 µM | – | – | –
CC(O)CCCOC(c1ccccc1)(c1ccccc1)c1ccccc1 (stereo unspecified) | 22.3 | 27.9 | 28.2 | 31 µM | – | 31.5 µM | 26.4 µM | – | –
CC12CCC3C(CCC4CC(OC(=O)Cc5ccc(N(CCCl)CCCl)cc5)CCC43C)C1CCC(=O)N2 (stereo unspecified) | 31.2 | 30 | 30.8 | 33.5 µM | 31.2 | 33 µM | 25.6 µM | – | –
COc1ccc(-c2oc(/C=N/NC(N)=S)c([N+](=O)[O-])c2-c2ccc(OC)c(OC)c2)cc1OC | 92.4 | 63.8 | > 100 | 63.1 µM | – | > 100 µM | 46.8 µM | > 100 | –
O=c1[nH]cnc(NC2C=C(CO)C(O)C2O)c1[N+](=O)[O-] (stereo unspecified) | > 100 | > 100 | > 100 | > 100 µM | > 100 | > 100 µM | > 84.7 µM | – | –
CCN(CC)CCCNC(=O)c1ccc([N+](=O)[O-])cc1O | > 100 | > 100 | – | – | – | > 100 µM | > 100 µM | > 100 | –
O=C1NCCS(=O)(=O)N[C@@H](CC2=CC=CCC2)C(=O)N2CCCC12 (stereo partly specified) | > 100 | > 100 | > 100 | > 100 µM | > 100 | > 100 µM | > 100 µM | > 100 | –
COc1c(O)c2c3c(c(C)cc(O)c3c1O)C(=O)C(O)(C(C)(C)C(C)=O)C2=O (stereo unspecified) | > 100 | > 100 | > 100 | 28.1 µM and 35.3 µM | > 100 | > 100 µM | 28.2 µM and > 100 µM | – | 13.3 µM and 55.3 µM
Nc1nc(N)c(N=O)c(Nc2ccc(Br)cc2)n1 | 95.7 | > 100 | 65.4 | > 100 µM | > 100 | > 100 µM | 52.1 µM | – | –
ClC(Cl)=C1C(=C(Cl)Cl)C(Cl)(Cl)C1(Cl)Cl | 11.3 | 2.47 | – | 9.1 µM | 19.4 | 3.3 µM | 2.33 µM | 13.9 | –
CC(C(=O)N1C(=O)N(C(=O)C(C)C(O)c2ccccc2)C2CCCCC21)C(O)c1ccccc1 (stereo unspecified) | > 100 | > 100 | > 100 | > 100 µM | – | – | – | – | –
CC1=NN(C(=O)CC(=O)Nc2ccccc2F)C(=O)C1N=Nc1ccccc1[N+](=O)[O-] (stereo unspecified) | > 100 | > 100 | > 100 | 33.6 µM | – | > 100 µM | > 100 µM | – | –
O=C(CN(c1ccccc1)c1ccccc1)N1c2ccccc2C2C=CC=CC21 (stereo unspecified) | 55.4 | 34.6 | 53.2 | > 57.4 µM | 74.9 | > 57.5 µM | 23.1 µM | – | –
CCC1=CC2CN3Cn4c(c(COCc5c6n(c7ccccc57)CN5CC7C=C(CC)C5C6(C(=O)OC)C7)c5ccccc54)C(C(=O)OC)(C2)C13 | > 100 | > 100 | > 100 | > 100 µM | – | > 100 µM | > 100 µM | – | –
CC(=O)OCC1OC(n2cc(I)c(=O)[nH]c2=O)C(OC(C)=O)C(OC(C)=O)C1OC(C)=O (stereo unspecified) | > 100 | > 100 | > 100 | > 100 µM | > 100 | > 100 µM | > 100 µM | – | –
